The values below come from patent US11078189B2, “Pharmaceutical compounds” (REVIRAL LIMITED, priority 2017, dated 2021).

As a reminder, the IC50 is the concentration needed to halve the response being measured. High values mean a need for much substance, low ones inhibition by little substance. What is called AUC is the area under the concentration-time curve, a measure of exposure. The term AUC(0-inf) denotes the area under the concentration-time curve extrapolated to infinity. Low values mean low exposure, high ones high exposure. What is called AUC(0-t) is the area under the concentration-time curve up to a stated or last time point. In general, Cmax refers to the maximum level reached in the sampled fluid or tissue. The Tmax is the time from dosing to the highest level.

Series [1] concerns the target T1, RSV fusion (pCDNA3.1_A2_F in HEK 293T cells) (Human respiratory syncytial virus A, UniProt P03420).
T1 construct: expressed in transfected cells; host or cells: HEK 293T (ECACC 12022001)
Briefly: RSV fusion assay. In kind it is cell-based. The protocol:
HEK 293T ((ECACC 12022001) cells were cultured in T75 culture flasks in Dulbecco's medium (DMEM) containing 10% Foetal Bovine serum (FBS), 50 units per mL Penicillin and 50 μg/mL Streptomycin and warmed to 37° C. prior to use. The cells were passaged by first washing briefly with 5 mL Phosphate buffered saline (PBS), followed by addition of 2 mL of Trypsin Ethylenediaminetetraacetic acid (EDTA) to detach the cells. Once cells had detached from the flask, 8 mL media was then added to and the cells dispersed via pipetting against the bottom of the flask.
The cells were counted and diluted to 3×10^5 cells/ml in fresh media. Two T75 flasks were each seeded with 15.6 mL diluted cells, cells were also subcultured at a ratio of between 1:2 and 1:10, to continue the stock. The flasks were then incubated for 24 h at 37° C. and 5% CO2.
The plasmid DNA (for pFR-Luc and pcDNA3. 1_Gal4/NFKB) to be transfected into the HEK 293T cells was first prepared in serum free media (Opti-MEM, Invitrogen), containing the transfection reagent FuGENE® 6 (Promega). Serum free media was placed in a 1.5 mL eppendorf tube then the FuGENE 6 was added into the media. The tube was vortexed for 1 s before being incubated at RT for 5 min. 7.79 ng of both pFR_luc and pCDNA3.1_A2_F plasmid DNA were added to tube 1 and 7.79 ng of pCDNA3.1_GAL4-NF-κB plasmid to tube 2. The tubes were vortexed for 1 second and then incubated at room temperature for 15 min. Each transfection mixture was then added into the media of one of the T75 flasks of 293T cells. Cells were cultured for 24h at 37° C., 5% CO2 in a humidified incubator.
Compounds were diluted (in a polypropylene round-bottomed 96 well plate) 1:3 in a twelve point dilution curve to give top [final] of either 25 μM, 3 μM, 1 μM or 500 nM. A control compound was included in every assay at a top concentration of 3 μM. Transfected cells were counted and diluted to 4×10^5 cells/mL in fresh media. 50 μL of transfection population 1 were added to all wells of the 96 well flat bottom white opaque assay plates. 100 μL diluted compound (2 rows per compound), control compound (one row) and controls (DMSO (0% inhibition, four wells), 3 μM positive control (100% inhibition, four wells) and media (transfection population 1 only, four wells) were added to the appropriate wells. 50 μL of the diluted (4×10^5 cells/mL) population 2 cells when then added to all wells, except the four wells of transfection population 1 only where an extra 50 μL of this cells population was added.
The plates were then incubated for 24 h at 37° C. and 5% CO2. After this time, 100 μL was removed from all wells and 60 μL of ONE-Glo™ (Promega) reagent, pre-equilibrated to room temperature, was added. Plates were then incubated for 3 min at room temperature before luminescence was read, using the ONE-Glo protocol, on the GloMax Explorer System (Promega) multimode reader. Analysis was carried out in Dotmatics software. All raw data were background subtracted (subtraction of mean 3 μM positive control value), before IC50 calculation.

Series [2] in a line: Liver microsomal stability, rat. In kind it is in vitro ADME. To be noted: pooled liver microsomes, pH 7.4; rat liver microsomes 0.5 mg/mL; 3 μM compound; read-out: Liver Microsoinal Stability t1/2, rat. The protocol:
(§1) Pooled liver microsomes are purchased from a reputable commercial supplier and stored at −80° C. prior to use. Microsomes (final protein concentration 0.5 mg/mL), 0.1 M phosphate buffer pH 7.4 and test compound (final substrate concentration 3 μM; final DMSO concentration 0.25%) are pre-incubated at 37° C. prior to the addition of NADPH (final concentration 1 mM) to initiate the reaction. The final incubation volume is 50 uL. A control incubation is included for each compound tested where 0.1 M phosphate buffer pH 7.4 is added instead of NADPH (minus NADPH). Two control compounds are included with each species. All incubations are performed singularly for each test compound. Each compound is incubated for 0, 5, 15, 30 and 45 min. The control (minus NADPH) is incubated for 45 min only. The reactions are stopped by transferring 20 μL of incubate to 60 μL MeOH at the appropriate time points. The termination plates are centrifuged at 2,500 rpm for 20 min at 4° C. to precipitate the protein. Following protein precipitation, the sample supernatants are combined in cassettes of up to 4 compounds, internal standard is added and samples analysed by LC-MS/MS. From a plot of In peak area ratio (compound peak area/internal standard peak area) against time, the gradient of the line is determined. Subsequently, half-life and intrinsic clearance are calculated.
On the technique in general: Liver microsomes are a subcellular fraction often used to study metabolism.

The nature of series [3]: Liver microsomal stability, dog. It counts as in vitro ADME. The note with it: pooled liver microsomes, pH 7.4; dog liver microsomes 0.5 mg/mL; 3 μM compound; read-out: Liver Microsoinal Stability t1/2, dog. Here is the method: as §1
A short description of series [4]: In vivo pharmacokinetics in the dog. More on the design: species or system Beagle dogs. The note with it: Beagle, plasma, 3 mg/kg PO. The protocol: The pharmacokinetics of compounds of the invention were studied in vivo in the dog at doses of 3 mg/kg (PO).
Beagle dogs (n=3) were treated with experimental compounds via oral administration (3 mg/kg). Oral administration was performed by gavage at a dose of 3 mg/kg at a concentration of 0.6 mg/mL in […], 30% PEG 400 & 65% (2-hydroxypropyl)-β-cyclodextrin solution (20% w/v aq.). Serial blood samples were collected at 0.08, 0.25, 0.5, 1, 2, 4, 6, 8, 12 and 24 hours post dosing of compound. […] Serial plasma samples were taken at the defined time points and stored immediately at −80° C.
Following protein precipitation with acetonitrile, samples were analysed with tandem. liquid chromatography/mass spectrometry using electrospray ionisation. A full matrix curve with internal standards was employed and PK parameters were calculated.

T1 sequence (P03420 26-109): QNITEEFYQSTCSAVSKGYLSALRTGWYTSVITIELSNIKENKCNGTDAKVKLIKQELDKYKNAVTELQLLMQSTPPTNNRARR
T1 sequence (P03420 137-574): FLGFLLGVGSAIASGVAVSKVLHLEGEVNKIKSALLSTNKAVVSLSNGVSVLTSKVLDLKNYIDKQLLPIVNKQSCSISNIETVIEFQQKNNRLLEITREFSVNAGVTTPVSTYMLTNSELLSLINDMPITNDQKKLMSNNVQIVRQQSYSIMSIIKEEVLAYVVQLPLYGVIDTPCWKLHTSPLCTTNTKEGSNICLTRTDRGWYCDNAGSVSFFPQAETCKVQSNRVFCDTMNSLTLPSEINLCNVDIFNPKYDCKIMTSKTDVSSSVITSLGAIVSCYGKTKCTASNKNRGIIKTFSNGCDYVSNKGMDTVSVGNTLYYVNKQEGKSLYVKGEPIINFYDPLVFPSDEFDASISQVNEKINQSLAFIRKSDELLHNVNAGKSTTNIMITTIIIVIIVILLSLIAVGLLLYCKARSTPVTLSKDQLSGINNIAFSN

`CS(=O)(=O)N1CCC(n2c(CN3C(=O)C4(CC4)c4ccc(F)cc43)nc3cc(Cl)ccc32)CC1` [Compound 33, 1′-{[5-Chloro-1-(1-methanesulfonylpiperidin-4-yl)-1H-1,3-benzodiazol-2-yl]methyl}-6′-fluoro-1′,2′-dihydrospiro[cyclopropane-1,3′-indole]-2′-one]: the IC50 in series [1] was found to be 3.3 nM. The half-life at 3 μM in series [2] was 0.247 h. For the same compound, the half-life at 3 μM in series [3] came to 3.1 h. Further, in series [4], the AUC turned out to be 3870 ng·h/mL, the AUC(0-inf) is 4280 ng·h/mL, the exposure AUC(0-t) amounted to 3870 ng·h/mL and the concentration peaked (Cmax) at 535 ng/mL. For the same compound, in series [4], the Tmax came out at 0.67 h and the half-life is 7.24 h.

The compound `CCS(=O)(=O)N1CCC(n2c(CN3C(=O)C4(CC4)c4ccc(F)cc43)nc3cc(Cl)ccc32)CC1` [Compound 35, 1′-({5-Chloro-1-[1-(ethanesulfonyl)piperidin-4-yl]-1H-1,3-benzodiazol-2-yl}methyl)-6′-fluoro-1′,2′-dihydrospiro[cyclopropane-1,3′-indole]-2′-one] displayed an IC50 in series [1] of 5 nM. Further, the values for the half-life at 3 μM in series [2] and in series [3] were 0.0917 h and 2.77 h, respectively.
